Measured values as given in BigSolDB 2.1.

CCCCCCCCCCCCCCCCCCCCCC(=O)OCCO
Conditions | solubility (mole fraction)
in 1,1,1-trichloroethane, 287.55 K | 0.0101
in 1,1,1-trichloroethane, 290.15 K | 0.0146
in 1,1,1-trichloroethane, 293.65 K | 0.0202
in 1,1,1-trichloroethane, 296.95 K | 0.0313
in 1,1,1-trichloroethane, 299.45 K | 0.043
in 1,1,1-trichloroethane, 302.35 K | 0.0571
in 1,1,1-trichloroethane, 304.35 K | 0.0718
in 1,1,1-trichloroethane, 305.75 K | 0.0958
in 1,1,1-trichloroethane, 308.95 K | 0.127
in 1,1,1-trichloroethane, 311.75 K | 0.161
in 1,1,1-trichloroethane, 318.15 K | 0.259
in cyclohexane, 295.95 K | 0.0024
in cyclohexane, 300.05 K | 0.0037
in cyclohexane, 304.75 K | 0.0102
in cyclohexane, 307.15 K | 0.0204
in cyclohexane, 308.95 K | 0.041
in cyclohexane, 311.05 K | 0.0766
in cyclohexane, 312.65 K | 0.108
in ethanol, 296.35 K | 0.0001
in ethanol, 302.05 K | 0.0002
in ethanol, 305.35 K | 0.0003
in ethanol, 311.65 K | 0.0007
in ethanol, 313.05 K | 0.0009
in ethanol, 322.45 K | 0.0131
in isobutanol, 295.75 K | 0.0001
in isobutanol, 300.35 K | 0.0004
in isobutanol, 304.45 K | 0.0018
in isobutanol, 304.55 K | 0.0016
in isobutanol, 308.45 K | 0.003
in isobutanol, 311.55 K | 0.0082
in isopropanol, 305.15 K | 0.0003
in isopropanol, 306.65 K | 0.0006
in isopropanol, 313.15 K | 0.0008
in isopropanol, 315.65 K | 0.0015
in isopropanol, 319.65 K | 0.0033
in isopropanol, 321.65 K | 0.0058
in isopropanol, 325.65 K | 0.0069
in isopropanol, 326.65 K | 0.0241
in n-butanol, 295.85 K | 0.0004
in n-butanol, 299.75 K | 0.0006
in n-butanol, 304.25 K | 0.001
in n-butanol, 307.25 K | 0.0018
in n-butanol, 309.25 K | 0.0036
in n-propanol, 296.55 K | 0.0002
in n-propanol, 299.15 K | 0.0003
in n-propanol, 302.85 K | 0.0007
in n-propanol, 303.15 K | 0.0008
in n-propanol, 306.05 K | 0.0016
in n-propanol, 308.85 K | 0.0033
in tetrachloroethylene, 297.25 K | 0.0002
in tetrachloroethylene, 298.45 K | 0.0003
in tetrachloroethylene, 301.95 K | 0.0005
in tetrachloroethylene, 303.25 K | 0.0008
in tetrachloroethylene, 309.75 K | 0.0028
in trichloroethylene, 296.25 K | 0.0089
in trichloroethylene, 301.35 K | 0.0177
in trichloroethylene, 306.45 K | 0.0406
in trichloroethylene, 310.85 K | 0.0804
in trichloroethylene, 311.25 K | 0.252

CCCCCCCCCCCCCCCCCCCC(=O)OCCO
Conditions | solubility (mole fraction)
in 1,1,1-trichloroethane, 296.75 K | 0.0241
in 1,1,1-trichloroethane, 299.75 K | 0.0469
in 1,1,1-trichloroethane, 303.75 K | 0.0762
in 1,1,1-trichloroethane, 309.55 K | 0.142
in MIBK, 294.65 K | 0.0026
in MIBK, 298.05 K | 0.0049
in MIBK, 299.25 K | 0.008
in MIBK, 302.65 K | 0.0176
in MIBK, 307.55 K | 0.0486
in MIBK, 311.75 K | 0.173
in cyclohexane, 296.35 K | 0.003
in cyclohexane, 298.75 K | 0.0044
in cyclohexane, 301.55 K | 0.008
in cyclohexane, 303.25 K | 0.0189
in cyclohexane, 305.65 K | 0.0367
in cyclohexane, 307.25 K | 0.069
in cyclohexane, 310.55 K | 0.122
in ethanol, 311.25 K | 0.0006
in ethanol, 314.65 K | 0.0012
in ethanol, 319.15 K | 0.002
in ethanol, 322.15 K | 0.005
in ethanol, 324.15 K | 0.0139
in isopropanol, 302.85 K | 0.0002
in isopropanol, 304.05 K | 0.0005
in isopropanol, 306.35 K | 0.0008
in isopropanol, 309.85 K | 0.001
in isopropanol, 310.65 K | 0.0017
in isopropanol, 310.95 K | 0.0026
in isopropanol, 313.15 K | 0.0028
in isopropanol, 316.15 K | 0.0062
in isopropanol, 318.15 K | 0.0134
in isopropanol, 319.85 K | 0.082
in isopropanol, 319.95 K | 0.193
in n-butanol, 303.75 K | 0.0006
in n-butanol, 303.95 K | 0.001
in n-butanol, 306.55 K | 0.0018
in n-butanol, 306.75 K | 0.0019
in n-butanol, 307.95 K | 0.0027
in n-butanol, 308.85 K | 0.0039
in n-butanol, 310.85 K | 0.0059
in n-butanol, 313.75 K | 0.0122
in n-butanol, 315.75 K | 0.0201
in n-butanol, 317.35 K | 0.0783
in n-butanol, 317.45 K | 0.151
in n-butyl acetate, 294.75 K | 0.0036
in n-butyl acetate, 296.55 K | 0.0065
in n-butyl acetate, 297.45 K | 0.009
in n-butyl acetate, 299.85 K | 0.0127
in n-butyl acetate, 301.05 K | 0.0184
in n-butyl acetate, 303.45 K | 0.0288
in n-butyl acetate, 307.35 K | 0.0655
in n-butyl acetate, 312.35 K | 0.147
in n-butyl acetate, 312.85 K | 0.172
in n-butyl acetate, 313.35 K | 0.185
in trichloroethylene, 297 K | 0.0428
in trichloroethylene, 299.25 K | 0.0575
in trichloroethylene, 304.25 K | 0.104
in trichloroethylene, 307.7 K | 0.15
in trichloroethylene, 311.3 K | 0.216
